pIC50: −log10 of the molar value.
Legend:
[1] = biological target: T1, recombinant human transglutaminase 2 (Homo sapiens, UniProt P21980); assay: Transglutaminase assay (dansylcadaverine incorporation into dimethylcasein, DCC-assay); type: biochemical; settings: recombinant human TG2 10 nM, dansylcadaverine/dimethylcasein, 37° C.
T1 construct: purchased Zedira T022
T1 sequence (P21980 1-687): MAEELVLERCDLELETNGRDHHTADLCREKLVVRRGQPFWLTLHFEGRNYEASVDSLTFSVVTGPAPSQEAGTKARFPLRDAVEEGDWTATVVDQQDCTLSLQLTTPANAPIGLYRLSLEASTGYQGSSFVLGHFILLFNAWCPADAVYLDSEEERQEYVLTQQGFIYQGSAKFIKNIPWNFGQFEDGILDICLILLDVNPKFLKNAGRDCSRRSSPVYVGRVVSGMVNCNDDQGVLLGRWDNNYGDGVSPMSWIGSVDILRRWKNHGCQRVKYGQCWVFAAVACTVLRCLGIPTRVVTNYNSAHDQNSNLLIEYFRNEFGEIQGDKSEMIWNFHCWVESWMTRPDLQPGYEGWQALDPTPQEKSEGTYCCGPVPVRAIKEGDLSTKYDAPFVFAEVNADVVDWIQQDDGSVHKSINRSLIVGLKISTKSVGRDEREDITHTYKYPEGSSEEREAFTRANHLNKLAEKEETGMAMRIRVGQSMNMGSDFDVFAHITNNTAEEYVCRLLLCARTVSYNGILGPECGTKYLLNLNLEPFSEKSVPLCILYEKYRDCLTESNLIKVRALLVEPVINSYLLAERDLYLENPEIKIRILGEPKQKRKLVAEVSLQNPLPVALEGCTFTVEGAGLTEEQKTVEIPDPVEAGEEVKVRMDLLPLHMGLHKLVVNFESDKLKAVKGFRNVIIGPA
Summary of the method: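 IC50 derived from fluorescence slope between 20 and 30 min (λex 330 nm, λem 500 nm, 37 °C), expressed relative to a 2% DMSO control. Reaction: 10 nM recombinant human TG2, 4 μM dimethylcasein, 16.7 μM dansylcadaverine, 10 mM CaCl2 and glutathione, pH 8.0.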

[2] = Caco-2 permeability assay (CacoReady kit); type: in vitro ADME; settings: human
Summary of the method: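 Apparent permeability coefficients (Papp) were measured across Caco-2 cell barriers using a ready-to-use kit run per the supplier's protocol. Values serve as a predictor of oral/intestinal bioavailability.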

[3] = Log D shake flask method (octanol / PBS pH 7.4, HPLC); type: physicochemical; settings: octanol/phosphate-buffered saline (PBS); octanol / PBS pH 7.4, shake flask
Description: In order to classify the inventive compounds according to their lipophilicity, Log D values (distribution coefficient) were determined by means of the well-established shake flask method, measuring the partition of a compound between an octanol and phosphate-buffered saline (PBS, pH 7.4) by HPLC.

SMILES	pIC50 [1]	Papp [2]	logD [3]
COC(=O)/C=C/CC[C@H](NC(=O)c1oc2ccccc2c1C)C(=O)Nc1cccn(CC(=O)N[C@H]2C[C@H]3CC[C@]2(C)C3(C)C)c1=O [III-61, (S,E)-methyl 6-(3-methylbenzofuran-2-carboxamido)-7-oxo-7-(2-oxo-1-(2-oxo-2-((1R,2S,4R)-1,7,7-trimethylbicyclo[2.2.1]heptan-2-ylamino)ethyl)-1,2-dihydropyridin-3-ylamino)hept-2-enoate]	6.60 to 7.60	1 to 10 ×10⁻⁶ cm/s	3 to 5
COC(=O)/C=C/CC[C@H](NC(=O)c1oc2ccccc2c1C)C(=O)Nc1cccn(CC(=O)NC2C3CC4CC2CC(Cl)(C4)C3)c1=O (stereo partly drawn) [III-40, (S,E)-methyl 7-(1-(2-(5-chloroadamantan-2-amino)-2-oxoethyl)-2-oxo-1,2-dihydropyridin-3-ylamino)-6-(3-methylbenzofuran-2-carboxamido)-7-oxohept-2-enoate]	> 7.60	1 to 10 ×10⁻⁶ cm/s	3 to 5
COC(=O)/C=C/CC[C@H](NC(=O)c1oc2ccccc2c1C)C(=O)Nc1cccn(CC(=O)NC23CCCC4CC(CCC42)C3)c1=O (stereo partly drawn) [III-72, (S,E)-methyl 7-(1-(2-(4-homoisotwistane-3-amino)-2-oxoethyl)-2-oxo-1,2-dihydropyridin-3-ylamino)-6-(3-methylbenzofuran-2-carboxamido)-7-oxohept-2-enoate]	6.60 to 7.60	1 to 10 ×10⁻⁶ cm/s	3 to 5

Source: patent US20240317708A1, “INHIBITORS OF TRANSGLUTAMINASES” (ZEDIRA GMBH, priority 2021, published 2024)
